Experimental data as given in patent US20090105341A1, “PROCESS FOR THE PRODUCTION OF TRANS-10, CIS 12 OCTADECADIENOIC ACID” (Teagasc Dairy Products Research Centre, priority 2005, published 2009).
Read-outs that look alike come from different tables or passages of the source.

Tests used:
[1] = dairy cows, cited from earlier work
[2] = test system: MCF-7 breast cancer cell line; conditions: cited from earlier work; for Decrease in cell numbers / cell viability: MCF-7, 20 μg/ml for 8 days, O'Shea et al., 1999
SW480 cells = conditions: cited from earlier work; for Reduction of cell viability: SW480, Miller et al. (2002); for Effect on SW480 cancer cells: 2003
[3] = test system: human colon cancer cells SW480; assay: Anti-proliferative activity of fermented oils, MTS cell viability
Experimental: The probiotic strain Lactobacillus paracasei ssp. paracasei NFBC 338 (Lb. paracasei NFBC 338) was previously isolated from the human gastrointestinal tract (GIT), and obtained from University College Cork, Ireland under a restricted materials transfer agreement. Lb. paracasei NFBC 338 was routinely cultured overnight (˜17 h) in MRS broth (Oxoid Ltd., Hampshire, UK) and incubated at 37° C. under anaerobic conditions using anaerobic jars containing Anaerocult A gas packs (Merck, Darmstedt, Germany). L. lactis carrying the plasmids pNZ44 were routinely cultured in the presence of chloramphenicol (5 μg/ml) as a selective marker. Lb. paracasei NFBC harboring the vector pMSP3535 were routinely cultured with erythromycin (10 μg/ml) as selective marker. E. coli TOP 10 (Invitrogen) harbouring the plasmid pNZ44 was cultured in LB (Luria-Bertani)-media supplemented with chloramphenicol (20 μg/ml). Human colon cancer cells were obtained from the American Type Culture Collection (ATCC, Manassas, Va., USA). The t10, c12 CLA isomer (98%+purity) was obtained from Matreya (Matreya Inc., PA, USA;). Cell culture media and supplements were purchased from Sigma Aldrich Ireland Ltd. (Dublin, Ireland), unless otherwise stated. SW480 cells were maintained in Dulbecco's […] (DMEM) supplemented with 5% (v/v) fetal bovine serum, 0.2 mM L-glutamine, 1 mM HEPES and 1 unit/ml penicillin and streptomycin. SW480 cells were grown in 96 well plates and maintained at 37° C. in a humidified atmosphere and a pH of 7.2-7.4 by a required flow of 95% air and 5% CO2.
To examine the anti-proliferative activity of the oils extracted following fermentation of the cultures (L. lactis pNZ44-coPAI and E. coli pNZ44-coPAI) in respective media containing linoleic acid (0.5 mg/ml), human colon cancer cells SW480 were cultured in the presence of different concentrations of the fermented oils. Initially, 1×10^4 cells were seeded in wells and cultured for 24 h at 37° C. to allow the cells to adhere to the surface prior to treatment with 5-20 μg t10, c12 CLA (from fermented oils and t10, c12 CLA standards in ethanol) and 5-25 μg linoleic acid (control unfermented oil and Sigma standard)/ml of media. […] Control flasks were supplemented with ethanol to a final concentration of 0.1% (v/v). Following incubation for 5 days, cell viability was measured and relative cell number were determined using the MTS method (Promega Corporation, Madison, Wis., USA), a colorimetric method for determining the number of viable cells in proliferation or cytotoxicity assays subsequent to incubation with MTS tetrazolium compound. Following incubation with MTS for 2 h, the absorbance was recorded at 492 nm with a 96-well plate reader. Cell viability (%) after treatment is expressed relative to the ethanol control, which represented 100%.
All figures are related to ethanol controls=100% cell viability.

CCCCCC/C=C/C=C\CCCCCCCC(=O)O [c9, t11 CLA, cis-9, trans-11-octadecadienoic acid]
Effect on milk fat ([1]; abomasal infusion): no effect
Decrease in cell numbers / cell viability [2]: 60%
Reduction of cell viability (SW480 cells): 40-52%

CCCCC/C=C\C/C=C\CCCCCCCC(=O)O [control-unfermented LA]
Effect on the cell viability ([3]; SW480, 5-25 μg/ml linoleic acid): only a minor effect

CCCCC/C=C\C/C=C\CCCCCCCC(=O)O [linoleic acid, 9 cis, 12 cis-octadecadienoic acid]
viability at 25 µg/mL ([3]; Homo sapiens, SW480, 120 h, read-out: Cell viability): 93.2%
Difference in cell viability versus control-linoleic acid (unfermented oil) ([3]; Student's t test): No significant difference
Effect on SW480 cancer cells (SW480 cells; 16.9 μg/ml media (60.2 μM), Miller et al.): slightly proliferative effect
Effect on SW480 cancer cells (SW480 cells; 42.8 μg/ml media (152.5 μM), Miller et al.): anti-proliferative effect
Increase of viability (SW480 cells; SW480, same amount (16 μg/ml), 4 days): 23%

CCCCC/C=C\C=C\CCCCCCCCC(=O)O [t10, c12 CLA, trans-10, cis-12 octadecadienoic acid]
Decrease in milk fat yield ([1]; 4 days abomasal infusion): 44%
Reduction in milk fat percentage ([1]; 4 days abomasal infusion): 42%
Decrease in cell numbers / cell viability [2]: 15%
Reduction of viability ([2]; MCF-7, 4 days incubation with 16 μg/ml, Miller et al., 2001): 50-60%
Difference in cell viability versus L. lactis t10, c12 CLA ([3]; 10-15 μg/ml (p<0.001) and 20 μg/ml (p<0.01)): significant difference
Difference in cell viability versus E. coli t10, c12 CLA (fermented oil) ([3]; at any concentration, Student's t test): no significant difference
Reduction of viability (SW480 cells; SW480, 4 days incubation with 16 μg/ml, Miller et al., 2001): 50-60%
Reduction of cell viability (SW480 cells): 47-61%
